Measured values from article PMC8303187, “Anti-Inflammatory Effects of Compounds from Cudrania tricuspidata in HaCaT Human Keratinocytes” (International Journal of Molecular Sciences, 2021).

Legend:
Type in all cases: cell-based, human
[1] = tested on: COX-2 protein expression in HaCaT cells; experiment: COX-2 protein expression in TNF-α + IFN-γ-treated HaCaT cells (Western blotting); conditions: HaCaT cells pre-incubated 3 h (5–80 μM), then TNF-α + IFN-γ (20 ng/mL) 24 h; Western blot
Excerpt: (§1) ICAM-1 is expressed in keratinocytes and is critical for the development of many skin diseases, such as contact dermatitis and lichen planus. Cyclooxygenase (COX) is the enzyme responsible for the conversion of arachidonic acid to prostaglandin H2, which is the main step in the prostaglandin synthesis pathway. COX-2 expression plays a key role in skin inflammation. In this experiment, the anti-inflammatory effects of the six compounds from C. tricuspidata on the expression of pro-inflammatory proteins were investigated in TNF-α + IFN-γ-treated HaCaT cells. Briefly, cells were pre-incubated for 3 h with or without the six compounds from C. tricuspidata (5–80 μM) and were subsequently challenged with TNF-α + IFN-γ (20 ng/mL) for 24 h. […]
(§2) Figure 4 Protein expression levels of COX-2 (A,B) and ICAM-1 (C,D) in TNF-α + IFN-γ-treated HaCaT cells. […] The immunoblot was quantified using ImageJ software. […]
(§3) Cells were harvested and pelleted via centrifugation at 200× g for 3 min, washed with PBS, and lysed in 20 mM Tris-HCl buffer (pH 7.4) containing a protease inhibitor mixture (0.1 mM phenylmethanesulfonyl fluoride, 5 mg/mL aprotinin, 5 mg/mL pepstatin A, and 1 mg/mL chymostatin). The protein concentration was determined using a protein assay dye reagent concentrate (#5000006; Bio-Rad Laboratories, Hercules, CA, USA). […]

[2] = tested on: ICAM-1 protein expression in HaCaT cells; experiment: ICAM-1 protein expression in TNF-α + IFN-γ-treated HaCaT cells (Western blotting); conditions: HaCaT cells pre-incubated 3 h (5–80 μM), then TNF-α + IFN-γ (20 ng/mL) 6 h; Western blot
Excerpt: as §1, with “[…] Previous studies have reported that compound 6 inhibits” for “Briefly, cells were pre-incubated for 3 h with or without”, “expression of COX-2 [55]; however, this study is the first to report the inhibition of COX-2 protein production by compound 6 in HaCaT cells.” for “six compounds from C. tricuspidata (5–80 μM) and were subsequently challenged with TNF-α + IFN-γ (20 ng/mL) for 24 h.”
as §2, §3

[3] = tested on: p38 phosphorylation in HaCaT cells; experiment: p38 phosphorylation in TNF-α + IFN-γ-treated HaCaT cells (Western blotting); conditions: HaCaT cells pretreated 3 h, then TNF-α + IFN-γ (20 ng/mL) 6 h; Western blot
Description: (§4) Stimulation of keratinocytes with TNF-α + IFN-γ upregulates various MAPK signaling pathways. To evaluate the anti-inflammatory effects of the six compounds from C. tricuspidata on the MAPK pathway, Western blotting analysis was used to determine the phosphorylation levels of JNK1/2, ERK1/2, and p38 in TNF-α + IFN-γ-treated HaCaT cells. Cells were pretreated with the six compounds from C. tricuspidata at the indicated concentrations for 3 h, and then stimulated with TNF-α + IFN-γ (20 ng/mL) for either 15 min, 2 h, or 6 h. Following the treatment with TNF-α + IFN-γ for 2 h, the phosphorylation of JNK1/2 was not inhibited by any of the six compounds (Figure 6A,B). After 15 min of treatment with TNF-α + IFN-γ, ERK1/2 phosphorylation was inhibited only by compound 14 (Figure 6C,D). The phosphorylation of p38 was inhibited only by compounds 13 and 4 after 6 h of treatment with TNF-α + IFN-γ (Figure 6E,F). […]
(§5) Figure 6 Effect of the six compounds from C. tricuspidata on JNK-1/2, ERK-1/2, and p38 phosphorylation in HaCaT cells. […] Cell extracts were analyzed using Western blotting and antibodies specific for phosphorylated JNK1/2 (p-JNK1/2), p-ERK1/2, or p-p38. […] Immunoblots were quantified using ImageJ software. The band intensity was quantified and normalized to each total protein concentration. * p < 0.05, ** p < 0.01, and *** p < 0.001 compared with TNF-α + IFN-γ only. […]

[4] = tested on: ERK1/2 phosphorylation in HaCaT cells; experiment: ERK1/2 phosphorylation in TNF-α + IFN-γ-treated HaCaT cells (Western blotting); conditions: HaCaT cells pretreated 3 h, then TNF-α + IFN-γ (20 ng/mL) 15 min; Western blot
Description: as §4, §5

Row | Compound | expression level of COX-2 [1] | ICAM-1 expression [2] | phosphorylation of p38 [3] | ERK1/2 phosphorylation [4]
1 | CC(C)=CCc1c(O)cc2oc(-c3ccc(O)cc3O)c(CC=C(C)C)c(=O)c2c1O [Compound 6, cudraflavone C] | decreased | particularly effective |  | 
2 | C=CC(C)(C)c1c(OC)cc2oc3cc(O)c(O)cc3c(=O)c2c1O [Compound 13, 1,6,7-trihydroxy-2-(1,1-dimethyl-2-propenyl)-3-methoxyxanthone] |  |  | inhibited | 
3 | C=CC(C)(C)c1c(O)cc(O)c2c(=O)c3cc(O)c(O)cc3oc12 [Compound 14, cudratricusxanthone L] | decreased | particularly effective |  | inhibited
4 | CC(C)=CCc1c(O)cc2c(c1O)C(=O)C[C@@H](c1ccc(O)cc1O)O2 [Compound 4, cudraflavanone B] |  |  | inhibited | 
